From patent publication US11896646B2, “Formulated and/or co-formulated liposome compositions containing toll-like receptor (“TLR”) agonist prodrugs useful in the treatment of cancer and methods thereof” (Nammi Therapeutics, Inc., priority 2020, dated 2024)

Experiments:
[1] = system: TLRs in RAW-Blue cells; experiment: RAW-Blue SEAP reporter / QUANTI-Blue assay (Example 20); assay type: cell-based, mouse; settings: 24 hr incubation, different concentration
Description: In another experiment, in vitro biological activity of LNP-TR3 and to further confirm targeting of TLR7 and not targeting TLR8, the following experiment(s) were performed using a RAW-Blue™ (NF-κB/AP-1 inducible secreted embryonic alkaline phosphatase (SEAP) reporter gene) Cells and QUANTI-Blue™ (alkaline phosphatase assay), HEK-Blue™ (HEK 293 cell line expressing a TLR gene and an NF-κB/AP-1 inducible secreted embryonic alkaline phosphatase (SEAP) reporter gene), and hTLR8 cell line assay (InvivoGen, San Diego, CA). Briefly, despite Raw Blue™ (NF-κB/AP-1 inducible secreted embryonic alkaline phosphatase (SEAP) reporter gene) cells that express a variety of human Toll Like Receptors (TLRs) (including TLR7/8 but with the exception of TLR5) hTLR8 cells dominantly express the human TLR8. […] Stimulation of these cells with TR3 lead to NF-κB activation through TLR8 which is measured by detection of SEAP levels.
RAW-Blue™ (NF-κB/AP-1 inducible secreted embryonic alkaline phosphatase (SEAP) reporter gene) Cells were incubated with TR5, LNP-TR5, TR3, TR3+Stearic Acid, and LNP-TR3 at different concentration. After twenty-four (24) hr. incubation with the compounds, TLR stimulation was assessed by measuring the levels of SEAP optimal density (OD) using a QUANTI-Blue™ (alkaline phosphatase assay) assay. […]

[2] = target: T1, human TLR8 (Homo sapiens, UniProt Q9NR97); experiment: HEK-Blue TLR8 SEAP reporter / QUANTI-Blue assay (Example 20); assay type: cell-based; settings: HEK-Blue TLR8 cells, 24 hr incubation, different concentration
T1 construct: host or cells: HEK-Blue hTLR8 (HEK 293)
T1 sequence (Q9NR97 27-1041): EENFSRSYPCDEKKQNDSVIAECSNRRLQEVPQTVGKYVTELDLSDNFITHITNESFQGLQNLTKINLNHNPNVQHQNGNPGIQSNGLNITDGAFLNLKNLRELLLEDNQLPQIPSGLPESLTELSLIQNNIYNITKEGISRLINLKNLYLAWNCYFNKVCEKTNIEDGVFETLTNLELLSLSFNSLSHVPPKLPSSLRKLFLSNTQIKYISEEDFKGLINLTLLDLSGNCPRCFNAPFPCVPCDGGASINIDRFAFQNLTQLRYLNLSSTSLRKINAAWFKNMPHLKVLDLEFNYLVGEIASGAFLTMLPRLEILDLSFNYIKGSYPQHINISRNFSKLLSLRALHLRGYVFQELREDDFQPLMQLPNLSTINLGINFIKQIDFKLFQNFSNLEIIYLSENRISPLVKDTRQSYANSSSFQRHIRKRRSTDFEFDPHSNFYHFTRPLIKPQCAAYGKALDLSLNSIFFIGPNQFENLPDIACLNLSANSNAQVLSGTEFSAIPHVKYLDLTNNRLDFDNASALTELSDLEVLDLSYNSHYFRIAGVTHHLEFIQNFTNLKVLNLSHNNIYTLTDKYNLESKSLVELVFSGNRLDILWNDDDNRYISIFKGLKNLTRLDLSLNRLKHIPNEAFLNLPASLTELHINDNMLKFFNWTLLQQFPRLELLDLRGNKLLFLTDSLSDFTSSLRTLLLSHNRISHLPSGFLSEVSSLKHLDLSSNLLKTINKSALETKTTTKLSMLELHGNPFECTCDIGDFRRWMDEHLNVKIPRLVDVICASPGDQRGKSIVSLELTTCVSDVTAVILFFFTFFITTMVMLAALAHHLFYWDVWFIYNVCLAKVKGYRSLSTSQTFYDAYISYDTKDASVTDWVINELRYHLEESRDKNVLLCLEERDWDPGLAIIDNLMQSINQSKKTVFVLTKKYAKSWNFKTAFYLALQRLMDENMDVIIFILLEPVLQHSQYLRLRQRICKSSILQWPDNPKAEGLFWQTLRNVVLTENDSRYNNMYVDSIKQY
Description: In another experiment, in vitro biological activity of LNP-TR3 and to further confirm targeting of TLR7 and not targeting TLR8, the following experiment(s) were performed using a RAW-Blue™ (NF-κB/AP-1 inducible secreted embryonic alkaline phosphatase (SEAP) reporter gene) Cells and QUANTI-Blue™ (alkaline phosphatase assay), HEK-Blue™ (HEK 293 cell line expressing a TLR gene and an NF-κB/AP-1 inducible secreted embryonic alkaline phosphatase (SEAP) reporter gene), and hTLR8 cell line assay (InvivoGen, San Diego, CA). Briefly, despite Raw Blue™ (NF-κB/AP-1 inducible secreted embryonic alkaline phosphatase (SEAP) reporter gene) cells that express a variety of human Toll Like Receptors (TLRs) (including TLR7/8 but with the exception of TLR5) hTLR8 cells dominantly express the human TLR8. Additionally, an NE κB/AP-1-inducible SEAP (secreted embryonic alkaline phosphatase) reporter gene were used. Stimulation of these cells with TR3 lead to NF-κB activation through TLR8 which is measured by detection of SEAP levels.

[3] = target: T2, TLR4 (Mus musculus, UniProt Q9QUK6); experiment: RAW-Blue SEAP reporter / QUANTI-Blue assay, TLR4 (Example 18); assay type: cell-based; settings: RAW-Blue cells, 24 hr incubation, different concentration
T2 construct: host or cells: RAW-Blue cells
T2 sequence (Q9QUK6 26-835): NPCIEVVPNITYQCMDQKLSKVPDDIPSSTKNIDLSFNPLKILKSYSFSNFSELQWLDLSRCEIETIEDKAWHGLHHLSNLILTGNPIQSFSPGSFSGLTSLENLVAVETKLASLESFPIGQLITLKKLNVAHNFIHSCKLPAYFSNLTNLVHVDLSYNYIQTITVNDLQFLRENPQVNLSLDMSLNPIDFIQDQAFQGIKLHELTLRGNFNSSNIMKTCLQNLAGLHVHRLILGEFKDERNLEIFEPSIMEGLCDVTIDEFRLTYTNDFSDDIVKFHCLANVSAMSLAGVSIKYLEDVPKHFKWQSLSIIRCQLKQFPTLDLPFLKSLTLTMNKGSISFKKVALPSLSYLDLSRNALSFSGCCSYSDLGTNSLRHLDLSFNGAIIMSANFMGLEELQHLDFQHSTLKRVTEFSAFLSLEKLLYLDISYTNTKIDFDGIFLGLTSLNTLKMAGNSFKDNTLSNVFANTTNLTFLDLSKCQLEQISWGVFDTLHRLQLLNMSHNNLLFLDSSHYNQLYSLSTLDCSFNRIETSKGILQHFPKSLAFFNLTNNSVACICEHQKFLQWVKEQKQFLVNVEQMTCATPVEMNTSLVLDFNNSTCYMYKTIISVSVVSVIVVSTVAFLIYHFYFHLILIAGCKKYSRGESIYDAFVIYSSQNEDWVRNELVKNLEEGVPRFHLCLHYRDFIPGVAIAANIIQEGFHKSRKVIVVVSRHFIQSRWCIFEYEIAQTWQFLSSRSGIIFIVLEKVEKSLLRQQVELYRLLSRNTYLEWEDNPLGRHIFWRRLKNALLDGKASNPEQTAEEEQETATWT
T2 sequence (Q9JHF9 19-160 partner): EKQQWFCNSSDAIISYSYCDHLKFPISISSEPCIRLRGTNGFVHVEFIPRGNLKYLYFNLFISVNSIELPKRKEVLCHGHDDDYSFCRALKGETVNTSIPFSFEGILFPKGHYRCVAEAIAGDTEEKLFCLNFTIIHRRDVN
Description: In another experiment, in vitro biological activity of LNP-TR8 and to further confirm targeting of TLR4, the following experiment(s) were performed using a RAW-Blue™ (NF-[…]/AP-1 inducible secreted embryonic alkaline phosphatase (SEAP) reporter gene) Cells and QUANTI-Blue™ (alkaline phosphatase assay) assay (InvivoGen, San Diego, CA). Briefly, Raw Blue™ (NF-κB/AP-1 inducible secreted embryonic alkaline phosphatase (SEAP) reporter gene) cells that express human Toll Like Receptors (TLRs) (with the exception of TLR5) and an NF-κB/AP-1-inducible SEAP (secreted embryonic alkaline phosphatase) reporter gene were used. Stimulation of these cells with TR8 lead to NF-κB activation through TLR4 which is measured by detection of SEAP levels. RAW-Blue™ (NF-κB/AP-1 inducible secreted embryonicalkaline phosphatase (SEAP) reporter gene) Cells were incubated with TR8 and LNP-TR8 at different concentration. After twenty-four (24) hr. incubation with the compounds, TLR stimulation was assessed by measuring the levels of SEAP optimal density (OD) using a QUANTI-Blue™ (alkaline phosphatase assay) assay. ODs were normalized to the control (untreated) group. […] (See, FIG. 26).

CCCCCCCCCCCCCCCCCCS(=O)(=O)NCCCCn1c(CC)nc2c(N)nc3ccccc3c21 [TR3+Stearic Acid]
TLR stimulation (SEAP OD normalized to untreated control) [1]: stimulated TLRs | TLR stimulation (SEAP OD normalized to untreated control) [2]: only TR5 in prodrug and liposome form were able to stimulate the cells

Monophosphoryl Lipid A (Synthetic) [TR8]
TLR stimulation (SEAP OD normalized to untreated control) [3]: could cause stimulation of TLR4
